Data published in PubChem BioAssay (NCI).
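Five concentrations, 48 hours, 96-well plates. Here, GI50 denotes the concentration required for 50% inhibition of growth. TGI marks complete inhibition of growth.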 Peptide text beside a SMILES is read from it. * marks the point of attachment. X26 = Clc1c(Cl)c(Cl)c(O*)c(Cl)c1Cl; Boc = CC(C)(C)OC(=O)*; OBn = c1ccc(CO*)cc1; Bn = c1ccc(C*)cc1

Assays:
Test in all cases: growth of human tumour cells (NCI), 48 h
MDA-N = test system: MDA-N
NCI-H460 lung = test system: NCI-H460 lung
LOX IMVI melanoma = test system: LOX IMVI melanoma
RXF 393 renal = test system: RXF 393 renal
HT29 colon = test system: HT29 colon
786-0 renal = test system: 786-0 renal
SK-MEL-28 melanoma = test system: SK-MEL-28 melanoma
CCRF-CEM leukemia = test system: CCRF-CEM leukemia
TK-10 renal = test system: TK-10 renal
A498 renal = test system: A498 renal
OVCAR-4 ovarian = test system: OVCAR-4 ovarian

Row | SMILES | TGI (MDA-N) | TGI (NCI-H460 lung) | TGI (LOX IMVI melanoma) | TGI (RXF 393 renal) | TGI (HT29 colon) | TGI (786-0 renal) | TGI (SK-MEL-28 melanoma) | TGI (CCRF-CEM leukemia) | TGI (TK-10 renal) | TGI (A498 renal) | TGI (OVCAR-4 ovarian) | GI50 (NCI-H460 lung) | GI50 (SK-MEL-28 melanoma) | GI50 (CCRF-CEM leukemia) | GI50 (TK-10 renal) | GI50 (A498 renal)
1 | N#Cc1nc(C2CCC(=O)O2)oc1N (stereo not given) | > 100 µM | > 100 µM | > 100 µM | > 100 µM | > 100 µM | > 100 µM | > 100 µM | > 100 µM | > 100 µM | > 100 µM | – | – | – | – | – | –
2 | O=c1c(-c2ccccc2)c(SCCN2CCCCCC2)n(-c2ccccc2)c(=S)n1-c1ccccc1 | – | > 100 µM | > 100 µM | 98.6 µM | – | – | > 100 µM | 29.4 µM | > 100 µM | 56.7 µM | 53.6 µM | – | – | – | – | –
3 | C=C(C)[C@H]1CC(=O)/C(C)=C\CC/C(C)=C/CC[C@@]2(C)O[C@@H]2C1 | 94.4 µM | 33.1 µM | 32.2 µM | – | 33.7 µM | > 100 µM | 64.6 µM | > 100 µM | 76.5 µM | > 100 µM | 75.3 µM | – | – | – | – | –
4 | CC(C)CC(NC(=O)C(CCC(=O)OCc1ccccc1)NC(=O)OC(C)(C)C)C(=O)NC(COCc1ccccc1)C(=O)NC(Cc1ccccc1)C(=O)Oc1c(Cl)c(Cl)c(Cl)c(Cl)c1Cl (stereo not given) (Boc-E(OBn)LS(Bn)F-X26; configuration not given here) | 48.6 µM | 59.8 µM | > 100 µM | 63.8 µM | > 100 µM | 90.7 µM | 56.4 µM | 74.7 µM | 72.1 µM | – | > 100 µM | – | – | – | – | –
5 | COc1ccc(C2SC(N)=Nc3c2c(C)nn3C(=O)c2ccc(Cl)cc2)cc1OC (stereo not given) | > 10 µM | > 10 µM | > 10 µM | > 10 µM | > 10 µM | > 10 µM | > 10 µM | > 10 µM | > 10 µM | – | > 10 µM | – | – | – | – | –
6 | Oc1c(OCc2nnc(CCCCCCCCc3nnc(COc4ccc5ccccc5c4O)o3)o2)ccc2ccccc12 | > 100 µM | > 100 µM | – | > 100 µM | > 100 µM | 50.8 µM | > 100 µM | – | > 100 µM | > 100 µM | > 100 µM | – | – | – | – | –
7 | Cn1c2c(c3ccccc31)CCN1C(=O)C34CCCC3CC21S4 (stereo not given) | > 100 µM | – | > 100 µM | > 100 µM | > 100 µM | > 100 µM | > 100 µM | – | > 100 µM | > 100 µM | > 100 µM | – | – | – | – | –
8 | CCN1CCN(Cc2ccc(NC(=O)Nc3ccc(-n4ccc5c(NC(=O)c6ccccc6)nccc54)cc3)cc2C(F)(F)F)CC1 | – | 1.45 µM | – | – | – | – | 3.07 µM | > 100 µM | > 100 µM | 19.1 µM | – | 0.0811 µM | 1.62 µM | 0.426 µM | 1.5 µM | 5.17 µM
9 | Cc1ccc2c(c1C)CC1(Cc3c(C)ccc(C)c3C1=O)C2=O (stereo not given) | > 100 µM | > 100 µM | – | > 100 µM | > 100 µM | > 100 µM | > 100 µM | > 100 µM | > 100 µM | > 100 µM | > 100 µM | – | – | – | – | –
10 | O=P(OCc1ccccc1)(OCc1ccccc1)C(O)/C=C/c1ccccc1 (stereo not given) | 36 µM | – | 31.5 µM | > 100 µM | 45.4 µM | 39.5 µM | > 100 µM | – | – | 35.2 µM | 56.1 µM | – | – | – | – | –
11 | CN(C)CCCNc1cc(O)c2c(c1O)C(=O)c1ccccc1C2=O | 27.4 µM | 19.4 µM | 24.8 µM | 17 µM | 24 µM | 21 µM | 31 µM | – | 22.1 µM | 37 µM | 25.4 µM | – | – | – | – | –
12 | Cc1ccc(C(=O)Cc2nc3c([nH]c2=O)c(C)nn3-c2ccccc2)c(C)c1 | > 10 µM | – | > 10 µM | – | > 10 µM | > 10 µM | > 10 µM | > 10 µM | > 10 µM | – | 5.19 µM | – | – | – | – | –
13 | COc1cc2c3c(cc(Cl)nc3c1OC)C(=O)C(=O)N2 | – | 42.7 µM | 25.9 µM | 27.5 µM | 41.4 µM | 13.4 µM | 33.7 µM | 8.21 µM | 33.4 µM | 30.2 µM | 3.05 µM | – | – | – | – | –
14 | Cc1ccc(S(=O)(=O)c2c(O)c3ccc(O)c(C)c3oc2=O)cc1 | > 100 µM | > 100 µM | – | > 100 µM | > 100 µM | > 100 µM | > 100 µM | > 100 µM | > 100 µM | – | > 100 µM | – | – | – | – | –
15 | CCOc1ccc(NCC2CC/C(=C\C=C\c3ccccc3)C2=O)cc1 (stereo not given) | – | > 80.8 µM | 23.5 µM | 29.6 µM | 30.3 µM | 13.5 µM | 35.5 µM | > 100 µM | > 50.7 µM | > 100 µM | 73.9 µM | – | – | – | – | –
16 | COc1ccc(OC)c(NC(=O)C(=O)C(C(=O)c2ccccc2F)C2OC(=O)c3ccccc32)c1 (stereo not given) | – | > 100 µM | > 100 µM | 70.7 µM | > 100 µM | – | > 100 µM | 91.1 µM | > 100 µM | > 100 µM | > 100 µM | – | – | – | – | –
17 | CC(C)=CCC12Cc3ccc(O)cc3C(C(C)CN1)C2C (stereo not given) | – | > 100 µM | > 100 µM | > 100 µM | > 100 µM | > 100 µM | > 100 µM | > 100 µM | > 100 µM | > 100 µM | > 100 µM | – | – | – | – | –
18 | COC(=O)C1=C(C(=O)OC)SC(=C2SC3=C(SC(=C4SCCS4)S3)S2)S1 | > 100 µM | – | > 100 µM | > 100 µM | > 100 µM | > 100 µM | > 100 µM | > 100 µM | > 100 µM | > 100 µM | – | – | – | – | – | –
19 | Cc1cc(OCc2nnc3sc(NC(=O)c4ccccc4)nn23)ccc1Cl | – | > 100 µM | 78.7 µM | 83.3 µM | > 100 µM | > 100 µM | > 100 µM | > 100 µM | > 100 µM | > 100 µM | > 100 µM | – | – | – | – | –
20 | Cc1cccc(NS(=O)(=O)c2ccc(N=Nc3c(O)c(C(=O)O)cc4ccccc34)cc2)n1 | – | > 100 µM | – | > 100 µM | > 100 µM | > 100 µM | > 100 µM | > 100 µM | > 100 µM | – | > 100 µM | – | – | – | – | –
21 | O=C(/C=C\Nc1ccccc1O)C(F)(F)F | > 100 µM | > 100 µM | > 100 µM | > 100 µM | > 100 µM | > 100 µM | > 100 µM | > 100 µM | > 100 µM | – | > 100 µM | – | – | – | – | –
22 | CC(=O)OC1CC2(O)C(CCC3(C)C(c4ccc(=O)oc4)CCC32O)C2(C)C1=CC(O)C1OC12 (stereo not given) | – | 0.0466 µM | 1.02 µM | 0.0324 µM | 2.89 µM | – | 0.592 µM | 0.487 µM | – | 0.582 µM | 0.121 µM | – | – | – | – | –
